Assay results: PMC7617869, “Molecular glues that inhibit deubiquitylase activity and inflammatory signaling” (Nature Structural & Molecular Biology, 2025)
pIC50: −log10 of the molar value. Values joined by “and” are separate entries in the source; they are usually repeats but may differ in a detail not shown here. Identical values can stand only once. Like-named read-outs stand apart in the source and are kept apart here.

Columns and labels:
[1] = biological target: T1, BRISC (Homo sapiens, UniProt P46736+Q15018+Q9NXR7); test: BRISC DUB activity assay (IQF K63-linked diubiquitin); format: biochemical
T1 construct: made in house; host or cells: Spodoptera frugiperda (Sf9) insect cells, MultiBac
Outline: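 Enzyme at 1 nM (BRISC WT or mutant) hydrolysed 50 nM IQF K63 diubiquitin in 50 mM HEPES–NaOH pH 7.0, 100 mM NaCl buffer at 30 °C. Kinetic fluorescence at 544/575 nm gave V0 over 30 min. Dose–response curves were fitted with variable slope to give IC50.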

[2] = test system: THP-1 cells; test: THP-1 live cell percentage; format: cell-based; details: THP-1, hIFNα2 25 ng/mL, 4 μM compound, 16 h
Experimental: THP-1 in vitro experiments
THP-1-DualTM cells (InvivoGen), derived from a human monocytic cell line, isolated from a patient with acute monocytic leukaemia, were cultured as per manufacturer’s guidance. Cells were seeded at 1x10^6 cells/mL in RPMI1640 media containing 10% fetal bovine serum (FBS), 1% penicillin-streptomycin (PS) (Gibco Laboratories) with DMSO (0.1%) (control) or in media containing JMS-175- […]
ng/mL) (Merck Life Science), ODN 2216 (1 µM) (Miltenyi Biotec), or Poly:IC (1 µg/mL) (InvivoGen).
Tofacitinib (Cambridge Biosciences) at 0.4 µM was used for comparison against a known JAK inhibitor.
Cells were centrifuged at 300 g for 5 minutes. Supernatant was removed and subjected to simultaneous study of the NF -κB pathway, by monitoring the activity of secreted alkaline phosphatase reporter (SEAP), and the IRF pathway, by assessing the activity o f a secreted Lucia luciferase using QUANTI - Blue ™ Solution and QUANTI -Luc™ 4 Lucia/Gaussia (InvivoGen), respectively, as per manufacturer’s instructions. Pelleted cells were used for FACS analysis using IFNα/β R1 APC-conjugated antibody or isotype control (Biotechne, FAB245A and IC002A), or unstained staining procedure with and without Zombie GreenTM (Biolegend). Samples were analysed using CytoFlex LX (Beckman) (50,000 live cells per condition). Median fluorescence intensity for APC channel gated on single cell live cells was analysed and compared as a percentage to control (no stimulation condition). […]

[3] = [Inhibitor] 0.013 μM, replicate columns
[4] = [Inhibitor] 0.02 μM, replicate columns
[5] = [Inhibitor] 0.0399999 μM, replicate columns
[6] = [Inhibitor] 0.0599997 μM, replicate columns
[7] = [Inhibitor] 0.0799994 μM, replicate columns
[8] = [Inhibitor] 0.119998 μM, replicate columns
[9] = [Inhibitor] 0.199996 μM, replicate columns
[10] = [Inhibitor] 0.499975 μM, replicate columns
[11] = [Inhibitor] 0.799936 μM, replicate columns
[12] = [Inhibitor] 1.25984 μM, replicate columns
[13] = [Inhibitor] 1.9996 μM, replicate columns
[14] = [Inhibitor] 3.159 μM, replicate columns
[15] = [Inhibitor] 5.19739 μM, replicate columns
[16] = [Inhibitor] 7.99364 μM, replicate columns
[17] = [Inhibitor] 12.7839 μM, replicate columns
[18] = [Inhibitor] 19.96 μM, replicate columns
[19] = [Inhibitor] 31.4999 μM, replicate columns
[20] = [Inhibitor] 50.147 μM, replicate columns
[21] = [Inhibitor] 79.7601 μM, replicate columns
[22] = [Inhibitor] 125.99 μM, replicate columns
[23] = [Inhibitor] 199.922 μM, replicate columns

SMILES: O=C(NC1CCNCC1)c1nn(C(=O)c2c(Cl)cccc2Cl)cc1NC(=O)c1c(Cl)cccc1Cl [JMS-175-2]
- pIC50 ([1]; 32-point dose-response, biphasic fit, read-out: IC50(1), biphasic curve): 5.96
- pIC50 ([1]; 32-point dose-response, biphasic fit, read-out: IC50(2), biphasic curve): 6.77
- Normalised V0 ([1]; Fig. 1e, BRISC, JMS-175-2 1.9996 μM): 0.6565 and 0.4518
- Normalised V0 ([1]; Fig. 1e, BRISC, JMS-175-2 5.19739 μM): 0.283 and 0.275 and 0.3465
- Normalised V0 ([1]; Fig. 1d, log[compound (μM)] 0.0000, listed as H20): 0.6438 and 0.8274 and 0.7444
- Normalised V0 ([1]; Fig. 1d, log[compound (μM)] 0.3979, listed as H20): 0.5783 and 0.5268 and 0.4841
- Normalised V0 ([1]; Fig. 1d, log[compound (μM)] 0.6990, listed as H20): 0.3795 and 0.3824 and 0.3190
- Normalised V0 ([1]; Fig. 1d, log[compound (μM)] 1.0000, listed as H20): 0.2528 and 0.2942 and 0.2669
- Normalised V0 ([1]; Fig. 1d, log[compound (μM)] 1.4771, listed as H20): 0.1351 and 0.1861 and 0.1726
- Normalised V0 ([1]; Fig. 1d, log[compound (μM)] 1.6990, listed as H20): 0.1117 and 0.1567 and 0.1200
- Normalised V0 ([1]; Fig. 1d, log[compound (μM)] -0.3010, listed as H20): 0.9255 and 0.9030
- Normalised V0 ([1]; Fig. 1d, log[compound (μM)] -1.0000, listed as H20): 0.9975 and 1.0280 and 1.0210
- Normalised V0 ([1]; Fig. 1d, log[compound (μM)] -2.0000, listed as H20): 1.0150 and 0.9155 and 1.0690
- pIC50 ([1]; IQF K63-linked diubiquitin substrate, read-out: IC50, inhibition of BRISC DUB activity): 5.42
- Normalised V0 [1, 3]: 0.9583 and 0.7384 and 1.046 and 0.967 and 0.8595 and 0.8402
- Normalised V0 [1, 4]: 0.8771 and 0.8197 and 1.004
- Normalised V0 [1, 5]: 1.299 and 0.7892 and 1.03
- Normalised V0 [1, 6]: 0.839 and 0.6819 and 0.9433
- Normalised V0 [1, 7]: 0.9097 and 0.9012 and 0.9628
- Normalised V0 [1, 8]: 1.013 and 0.9179 and 1.054
- Normalised V0 [1, 9]: 1.253 and 0.7708 and 1.101
- Normalised V0 [1, 10]: 0.5936 and 0.7022 and 0.9756
- Normalised V0 [1, 11]: 0.9296 and 0.6017 and 0.8518
- Normalised V0 [1, 12]: 1.139 and 0.471 and 0.8066
- Normalised V0 [1, 13]: 0.6565 and 0.4518 and 0.6268
- Normalised V0 [1, 14]: 0.6624 and 0.3061 and 0.5597
- Normalised V0 [1, 15]: 0.283 and 0.275 and 0.3465
- Normalised V0 [1, 16]: 0.6473 and 0.2184 and 0.4215
- Normalised V0 [1, 17]: 0.4135 and 0.1798 and 0.2477
- Normalised V0 [1, 18]: 0.3284 and 0.5166 and 0.3249
- Normalised V0 [1, 19]: 0.6187 and 0.1303 and 0.1533
- Normalised V0 [1, 20]: 0.2621 and 0.1377 and 0.1733
- Normalised V0 [1, 21]: 0.2164 and 0.1356 and 0.1726
- Normalised V0 [1, 22]: 0.1111 and 0.1816 and 0.02719
- Normalised V0 [1, 23]: -0.03072 and 0.01018 and -0.03521
- Normalised velocity (V0) ([1]; inhibitor 0.000794328 μM): 1
- Normalised velocity (V0) ([1]; inhibitor 0.00125892 μM): 0.9579 and 1.034
- Normalised velocity (V0) ([1]; inhibitor 0.00199526 μM): 1.01 and 0.9969
- Normalised velocity (V0) ([1]; inhibitor 0.00316228 μM): 0.9962 and 1.154
- Normalised velocity (V0) ([1]; inhibitor 0.00501187 μM): 0.9932 and 1.028
- Normalised velocity (V0) ([1]; inhibitor 0.00794328 μM): 1.087 and 1.121
- normalised V0, Mean ([1]; inhibitor 0.01 μM): 1
- Normalised velocity (V0) ([1]; inhibitor 0.0125893 μM): 1.059 and 1.016
- Normalised velocity (V0) ([1]; inhibitor 0.0199526 μM): 1.08 and 1.097
- Normalised velocity (V0) ([1]; inhibitor 0.0316228 μM): 1.03 and 1.101
- Normalised velocity (V0) ([1]; inhibitor 0.0501187 μM): 1.036 and 1.109
- normalised V0, Mean ([1]; inhibitor 0.0781 μM): 0.9992
- Normalised velocity (V0) ([1]; inhibitor 0.0794328 μM): 1.026 and 1.083
- Normalised velocity (V0) ([1]; inhibitor 0.125893 μM): 0.8526 and 0.9544
- Normalised velocity (V0) ([1]; inhibitor 0.199526 μM): 0.6481 and 0.8082
- Normalised velocity (V0) ([1]; inhibitor 0.316228 μM): 0.694 and 0.5793
- Normalised velocity (V0) ([1]; inhibitor 0.398107 μM): 0.5098 and 0.5762
- Normalised velocity (V0) ([1]; inhibitor 0.630957 μM): 0.4827 and 0.4555
- normalised V0, Mean ([1]; inhibitor 0.7812 μM): 0.7414
- Normalised velocity (V0) ([1]; inhibitor 1 μM): 0.3835 and 0.2691
- normalised V0, Mean ([1]; inhibitor 1.562 μM): 0.5385
- Normalised velocity (V0) ([1]; inhibitor 1.58489 μM): 0.2248 and 0.2189
- Normalised velocity (V0) ([1]; inhibitor 2.51189 μM): 0.2301 and 0.1988
- normalised V0, Mean ([1]; inhibitor 3.12 μM): 0.384
- Normalised velocity (V0) ([1]; inhibitor 3.98107 μM): 0.1293 and 0.1933
- normalised V0, Mean ([1]; inhibitor 6.25 μM): 0.2986
- Normalised velocity (V0) ([1]; inhibitor 6.30957 μM): 0.09323 and 0.07115
- normalised V0, Mean ([1]; inhibitor 12.3 μM): 0.2014
- Normalised velocity (V0) ([1]; inhibitor 15.8489 μM): 0.009774 and 0.01547
- normalised V0, Mean ([1]; inhibitor 24.54 μM): 0.1684
- Normalised velocity (V0) ([1]; inhibitor 25.1189 μM): 0
- Normalised velocity (V0) ([1]; inhibitor 39.8107 μM): 0
- normalised V0, Mean ([1]; inhibitor 48.9 μM): 0.1492
- Normalised velocity (V0) ([1]; inhibitor 63.0957 μM): 0
- Normalised velocity (V0) ([1]; inhibitor 100 μM): 0
- normalised V0, Mean ([1]; inhibitor 100 μM): 0.04999
- normalised V0, Mean ([1]; inhibitor 199.5 μM): 0.004784
- percentage of live cells [2]: 98.05%

SMILES: Cn1cc(NC(=O)c2c(Cl)cccc2Cl)c(C(=O)NC2CCN(C(=O)c3c(Cl)cccc3Cl)CC2)n1 [AP-5-145]
- inhibition of BRISC DUB activity (in words) ([1]; IQF diubiquitin assay): no inhibitory effect
- Normalised V0 [1, 3]: 0.9159 and 1.143 and 0.9058 and 0.9388
- Normalised V0 [1, 4]: 0.9923 and 1.0109
- Normalised V0 [1, 5]: 0.8997 and 0.9429
- Normalised V0 [1, 6]: 0.9873 and 1.113
- Normalised V0 [1, 7]: 0.9492 and 1.054
- Normalised V0 [1, 8]: 0.9627 and 1.064
- Normalised V0 [1, 9]: 0.9243 and 0.9333
- Normalised V0 [1, 10]: 0.9206 and 1.055
- Normalised V0 [1, 11]: 0.5226 and 1.107
- Normalised V0 [1, 12]: 0.877 and 1.051
- Normalised V0 [1, 13]: 0.8804 and 1.0497
- Normalised V0 [1, 14]: 0.8796 and 0.9314
- Normalised V0 [1, 15]: 1.075 and 0.9343
- Normalised V0 [1, 16]: 0.9828 and 1.083
- Normalised V0 [1, 17]: 1.017 and 1.039
- Normalised V0 [1, 18]: 1.018 and 0.9724
- Normalised V0 [1, 19]: 0.9031 and 1.019
- Normalised V0 [1, 20]: 0.9135 and 0.9224
- Normalised V0 [1, 21]: 0.8955 and 0.9782
- Normalised V0 [1, 22]: 0.8989 and 0.9064
- Normalised V0 [1, 23]: 0.8256 and 0.9679
- percentage of live cells [2]: 98.52%
